# Tests used:
# Assay in all cases: in vitro antibacterial activity (MIC), agar dilution
# Type in all cases: cell-based
# [1] = system: Staphylococcus aureus 1775; settings: organism code GG; BHI agar, 35-37° C., 20 to 24 hours; unit assumed
# How it was run: (§1)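 Endpoint: lowest concentration with no growth, slight haze or sparsely isolated colonies at the inoculum spot, judged against a compound-free BHI control. Strains were replicator-inoculated at 1:100 (1:10 for Streptococcus and other slow growers).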
# [2] = system: Micrococcus luteus ATCC 4698; settings: organism code PP; BHI agar, 35-37° C., 20 to 24 hours; unit assumed
# How it was run: (§2)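 Test compound serially diluted in Brain Heart Infusion agar across twelve plates; inocula of 1:100 dilution (1:10 for slow growers such as Streptococcus) applied by Steers replicator. MIC taken visually as lowest concentration giving no growth, slight haze or sparse isolated colonies versus drug-free growth control.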
# [3] = system: Staphylococcus aureus A-5278; settings: organism code CC; BHI agar, 35-37° C., 20 to 24 hours; unit assumed
# How it was run: as §1
# [4] = system: Micrococcus luteus ATCC 9341; settings: organism code OO; BHI agar, 35-37° C., 20 to 24 hours; unit assumed
# How it was run: as §2
# Candida albicans CCH 442 = settings: organism code TT; BHI agar, 35-37° C., 20 to 24 hours; unit assumed
# How it was run: as §1
# [5] = system: Streptococcus pyogenes EES61; settings: organism code LL; BHI agar, 35-37° C., 20 to 24 hours; unit assumed
# How it was run: as §1
# [6] = system: Staphylococcus aureus NCTC10649M; settings: organism code EE; BHI agar, 35-37° C., 20 to 24 hours; unit assumed
# How it was run: as §1
# [7] = system: Haemophilis Influenzae DILL AMP R; settings: organism code WW; BHI agar, 35-37° C., 20 to 24 hours; unit assumed
# How it was run: as §1
# [8] = system: Streptococcus pyogenes 930; settings: organism code MM; BHI agar, 35-37° C., 20 to 24 hours; unit assumed
# How it was run: as §1
# Escherichia coli SS = settings: organism code RR; BHI agar, 35-37° C., 20 to 24 hours; unit assumed
# How it was run: as §1
# [9] = system: Nocardia Asteroides ATCC9970; settings: organism code VV; BHI agar, 35-37° C., 20 to 24 hours; unit assumed
# How it was run: as §1
# Escherichia coli DC-2 = settings: organism code SS; BHI agar, 35-37° C., 20 to 24 hours; unit assumed
# How it was run: as §1
# [10] = system: Streptococcus Pneumonia GYR 1171; settings: organism code YY; BHI agar, 35-37° C., 20 to 24 hours; unit assumed
# How it was run: as §1
# [11] = system: Streptococcus Pneumonia 5649; settings: organism code ZZA; BHI agar, 35-37° C., 20 to 24 hours; unit assumed
# How it was run: as §1
# [12] = system: Streptococcus agalactiae CMX 508; settings: organism code KK; BHI agar, 35-37° C., 20 to 24 hours; unit assumed
# How it was run: as §1
# [13] = system: Enterococcus faecium ATCC 8043; settings: organism code II; BHI agar, 35-37° C., 20 to 24 hours; unit assumed
# How it was run: as §1
# [14] = system: Mycobacterium smegmatis ATCC 114; settings: organism code UU; BHI agar, 35-37° C., 20 to 24 hours; unit assumed
# How it was run: as §1
# [15] = system: Staphylococcus aureus A5177; settings: organism code BB; BHI agar, 35-37° C., 20 to 24 hours; unit assumed
# How it was run: as §1
# [16] = system: Staphylococcus aureus CMX 553; settings: organism code FF; BHI agar, 35-37° C., 20 to 24 hours; unit assumed
# How it was run: as §1
# Escherichia coli JUHL = settings: organism code QQ; BHI agar, 35-37° C., 20 to 24 hours; unit assumed
# How it was run: as §1
# [17] = system: Streptococcus Pneumonia ATCC6303; settings: organism code XX; BHI agar, 35-37° C., 20 to 24 hours; unit assumed
# How it was run: as §1
# [18] = system: Streptococcus pyogenes PIU 2548; settings: organism code NN; BHI agar, 35-37° C., 20 to 24 hours; unit assumed
# How it was run: as §1
# [19] = system: Streptococcus Pneumonia 5979; settings: organism code ZZ; BHI agar, 35-37° C., 20 to 24 hours; unit assumed
# How it was run: as §1
# [20] = system: Streptococcus bovis A-5169; settings: organism code JJ; BHI agar, 35-37° C., 20 to 24 hours; unit assumed
# How it was run: as §1
# [21] = system: Staphylococcus epidermidis 3519; settings: organism code HH; BHI agar, 35-37° C., 20 to 24 hours; unit assumed
# How it was run: as §1
# [22] = system: Staphylococcus aureus ATCC 6538P; settings: organism code AA; BHI agar, 35-37° C., 20 to 24 hours; unit assumed
# How it was run: as §1
# [23] = system: Staphylococcus aureus CMX 642A; settings: organism code DD; BHI agar, 35-37° C., 20 to 24 hours; unit assumed
# How it was run: as §1
SMILES,MIC [1],MIC [2],MIC [3],MIC [4],MIC (Candida albicans CCH 442),MIC [5],MIC [6],MIC [7],MIC [8],MIC (Escherichia coli SS),MIC [9],MIC (Escherichia coli DC-2),MIC [10],MIC [11],MIC [12],MIC [13],MIC [14],MIC [15],MIC [16],MIC (Escherichia coli JUHL),further results
CC[C@H]1OC(=O)[C@H](C)C(=O)[C@H](C)[C@@H](O[C@@H]2O[C@H](C)C[C@H](N(C)C)[C@H]2O)[C@](C)(OCC#Cc2ccc(-c3cncc(C(N)=O)c3)s2)C[C@@H](C)C(=O)[C@H](C)[C@H]2NC(=O)O[C@@]21C [Example 9],> 100 µg/mL,0.1 µg/mL,> 100 µg/mL,0.02 µg/mL,> 100 µg/mL,0.02 µg/mL,0.2 µg/mL,2 µg/mL,0.2 µg/mL,0.78 µg/mL,0.1 µg/mL,50 µg/mL,≤ 0.004 µg/mL,0.25 µg/mL,0.02 µg/mL,0.05 µg/mL,6.2 µg/mL,0.1 µg/mL,0.1 µg/mL,50 µg/mL,MIC [17]: ≤ 0.004 µg/mL; MIC [18]: 0.2 µg/mL; MIC [19]: 0.03 µg/mL; MIC [20]: 0.02 µg/mL; MIC [21]: 0.1 µg/mL; MIC [22]: 0.1 µg/mL; MIC [23]: 0.1 µg/mL
CC[C@H]1OC(=O)[C@H](C)C(=O)[C@H](C)[C@@H](O[C@@H]2O[C@H](C)C[C@H](N(C)C)[C@H]2O)[C@](C)(OC/C=C/c2cncc(-c3cncs3)c2)C[C@@H](C)C(=O)[C@H](C)[C@H]2NC(=O)O[C@@]21C [Example 52],> 100 µg/mL,0.2 µg/mL,> 100 µg/mL,0.01 µg/mL,> 100 µg/mL,0.02 µg/mL,0.05 µg/mL,2 µg/mL,100 µg/mL,0.39 µg/mL,0.02 µg/mL,25 µg/mL,≤ 0.004 µg/mL,0.25 µg/mL,≤ 0.005 µg/mL,0.01 µg/mL,1.56 µg/mL,0.05 µg/mL,0.05 µg/mL,100 µg/mL,MIC [17]: ≤ 0.004 µg/mL; MIC [18]: 0.1 µg/mL; MIC [19]: > 128 µg/mL; MIC [20]: 0.01 µg/mL; MIC [21]: 0.05 µg/mL; MIC [22]: 0.05 µg/mL; MIC [23]: 0.05 µg/mL
CC[C@H]1OC(=O)[C@H](C)C(=O)[C@H](C)[C@@H](O[C@@H]2O[C@H](C)C[C@H](N(C)C)[C@H]2O)[C@](C)(OC/C=C/c2nc(-c3cccnc3)cs2)C[C@@H](C)C(=O)[C@H](C)[C@H]2NC(=O)O[C@@]21C [Example 65],> 100 µg/mL,0.1 µg/mL,> 100 µg/mL,0.02 µg/mL,> 100 µg/mL,0.01 µg/mL,0.1 µg/mL,2 µg/mL,50 µg/mL,0.2 µg/mL,0.02 µg/mL,25 µg/mL,≤ 0.004 µg/mL,0.25 µg/mL,0.01 µg/mL,0.02 µg/mL,0.78 µg/mL,0.1 µg/mL,0.1 µg/mL,100 µg/mL,MIC [17]: 0.008 µg/mL; MIC [18]: 0.1 µg/mL; MIC [19]: > 128 µg/mL; MIC [20]: ≤ 0.005 µg/mL; MIC [21]: 0.1 µg/mL; MIC [22]: 0.1 µg/mL; MIC [23]: 0.1 µg/mL
CC[C@H]1OC(=O)[C@H](C)C(=O)[C@H](C)[C@@H](O[C@@H]2O[C@H](C)C[C@H](N(C)C)[C@H]2O)[C@](C)(OC/C=C/c2cnc(-c3cccs3)s2)C[C@@H](C)C(=O)[C@H](C)[C@H]2NC(=O)O[C@@]21C [Example 57],100 µg/mL,0.05 µg/mL,> 100 µg/mL,0.02 µg/mL,> 100 µg/mL,0.01 µg/mL,0.2 µg/mL,4 µg/mL,25 µg/mL,0.39 µg/mL,0.05 µg/mL,100 µg/mL,≤ 0.004 µg/mL,0.25 µg/mL,0.01 µg/mL,0.05 µg/mL,0.2 µg/mL,0.05 µg/mL,0.1 µg/mL,100 µg/mL,MIC [17]: ≤ 0.004 µg/mL; MIC [18]: 0.1 µg/mL; MIC [19]: 0.5 µg/mL; MIC [20]: 0.02 µg/mL; MIC [21]: 0.05 µg/mL; MIC [22]: 0.1 µg/mL; MIC [23]: 0.05 µg/mL
CC[C@H]1OC(=O)[C@H](C)C(=O)[C@H](C)[C@@H](O[C@@H]2O[C@H](C)C[C@H](N(C)C)[C@H]2O)[C@](C)(OC/C=C/c2ccc(-c3cccs3)s2)C[C@@H](C)C(=O)[C@H](C)[C@H]2NC(=O)O[C@@]21C [Example 74],25 µg/mL,0.1 µg/mL,50 µg/mL,0.02 µg/mL,> 100 µg/mL,0.01 µg/mL,0.2 µg/mL,4 µg/mL,> 100 µg/mL,0.39 µg/mL,0.1 µg/mL,> 100 µg/mL,≤ 0.004 µg/mL,0.25 µg/mL,≤ 0.005 µg/mL,0.02 µg/mL,0.39 µg/mL,0.1 µg/mL,0.1 µg/mL,100 µg/mL,MIC [17]: ≤ 0.004 µg/mL; MIC [18]: 0.1 µg/mL; MIC [19]: 2 µg/mL; MIC [20]: 0.02 µg/mL; MIC [21]: 0.1 µg/mL; MIC [22]: 0.1 µg/mL; MIC [23]: 0.1 µg/mL
CC[C@H]1OC(=O)[C@H](C)C(=O)[C@H](C)[C@@H](O[C@@H]2O[C@H](C)C[C@H](N(C)C)[C@H]2O)[C@](C)(OC/C=C/c2ccc(-c3cnccn3)s2)C[C@@H](C)C(=O)[C@H](C)[C@H]2NC(=O)O[C@@]21C [Example 62],> 100 µg/mL,0.05 µg/mL,> 100 µg/mL,≤ 0.005 µg/mL,> 100 µg/mL,≤ 0.005 µg/mL,0.02 µg/mL,2 µg/mL,3.1 µg/mL,0.2 µg/mL,≤ 0.005 µg/mL,25 µg/mL,≤ 0.004 µg/mL,0.03 µg/mL,≤ 0.005 µg/mL,0.02 µg/mL,0.78 µg/mL,0.05 µg/mL,0.02 µg/mL,50 µg/mL,MIC [17]: ≤ 0.004 µg/mL; MIC [18]: 0.1 µg/mL; MIC [19]: 2 µg/mL; MIC [20]: ≤ 0.005 µg/mL; MIC [21]: 0.05 µg/mL; MIC [22]: 0.05 µg/mL; MIC [23]: 0.05 µg/mL
CC[C@H]1OC(=O)[C@H](C)C(=O)[C@H](C)[C@@H](O[C@@H]2O[C@H](C)C[C@H](N(C)C)[C@H]2O)[C@](C)(OC/C=C/c2ccc(-c3ccsc3)s2)C[C@@H](C)C(=O)[C@H](C)[C@H]2NC(=O)O[C@@]21C [Example 76],100 µg/mL,0.2 µg/mL,100 µg/mL,0.05 µg/mL,> 100 µg/mL,0.01 µg/mL,0.05 µg/mL,8 µg/mL,3.1 µg/mL,0.2 µg/mL,0.1 µg/mL,100 µg/mL,≤ 0.004 µg/mL,0.125 µg/mL,0.01 µg/mL,0.02 µg/mL,0.78 µg/mL,0.1 µg/mL,0.1 µg/mL,100 µg/mL,MIC [17]: ≤ 0.004 µg/mL; MIC [18]: 0.1 µg/mL; MIC [19]: 16 µg/mL; MIC [20]: ≤ 0.005 µg/mL; MIC [21]: 0.1 µg/mL; MIC [22]: 0.1 µg/mL; MIC [23]: 0.1 µg/mL

# — patent US6054435A, “6-O-substituted macrolides having antibacterial activity” (priority 1999, dated 2000)
